Where two headings read alike, the source gives them in different places.
Key:
[1] = Solubility in water at 20° C.
dust mites = test: Dust mite kill efficacy, submersion method; format: in vivo; conditions: for >50% kill in 30 min.: 8% or saturated solutions in water, dust mites; for 1% HC Solution: time to 100% kill / 1% HC Solution: % kill at 30 min: 1% HC solution with 1% Stepanol WAC; for 1% HC Solution: time to 100% kill: solution pH (6.30-7.26); for 1% HC Solution: time to 100% kill / 1% HC with 7% DPnP Solution: time to 100% kill / 1% HC with 7% DpnP at 9.5 pH: time to 100% kill: maximum 30 minutes; for 1% HC with 7% DPnP Solution: time to 100% kill / 1% HC with 7% DpnP at 9.5 pH: time to 100% kill / 1% HC with 7% DpnP at 9.5 pH: % kill at 30 min / 1% HC with 7% DPnP Solution: % kill at 30 min: 1% Stepanol WAC; for 1% HC with 7% DpnP at 9.5 pH: time to 100% kill / 1% HC with 7% DpnP at 9.5 pH: % kill at 30 min: pH 9.5; for 8% Solution: time to 100% kill: 8% glycol ether/ester in water with 1% Stepanol WAC, mites immersed, maximum time period 30 minutes; for 1% HC Solution: % kill at 30 min: None = no kill
Text: To test the efficacy of the cleaning composition containing glycol ether, glycol ether ester, and combinations thereof for their ability to kill dust mites, a submersion method was used. The dust mites were immersed in the following solutions with a 1% or 8% glycol ether, glycol ether ester or a combination thereof. In addition to the glycol ether and or glycol ether ester, the solution also contained about 1% Stepanol® WAC (sodium lauryl sulfate) surfactant and the remainder of the solution was water. The pH of the aqueous solution was maintained between about 5 to 10.
After the dust mites were immersed in the solution they were tested each minute to determine if they were still alive or not. To test if the mites were alive after treatment, they are viewed under a dissecting microscope and poked with a 26-guage needle to induce movement. […] Since sometimes dust mites may appear to-be dead after treatment and then recover a few days later, a treated population and a control sample were placed in a high humidity desiccators and poke tests were conducted over several days following the initial treatment to ensure that the initial reported kill rates were accurate.

Vapor pressure = test: Vapor pressure
Description: The preferred vapor pressure of the solvents is less than about 1 mm Hg at 20° C., and preferably the vapor pressure is less than 0.5 mm Hg at 20° C.

Vapor Pressure (mm Hg) (Vapor pressure)	SMILES	Solubility in water at 20° C. [1] [%]	>50% kill in 30 min. (dust mites)	Vapor Pressure (mm Hg) (Vapor pressure; at 20° C.)	8% Solution: time to 100% kill (dust mites) [min]	other results
–	COCC(C)O (stereo not shown) [Propylene glycol methyl ether]	100	No	8.1	–	–
–	CCCOC(C)COC(C)CO (stereo not shown) [Dipropylene glycol n-propyl ether]	18	No	0.05	–	–
–	CCCCOC(C)COC(C)COC(C)CO (stereo not shown) [Dowanol TPnB, Tripropylene glycol n-butyl ether]	–	Yes	<0.01	20	1% HC Solution: % kill at 30 min (dust mites): None; 1% HC with 7% DPnP Solution: % kill at 30 min (dust mites): 90% kill; 1% HC with 7% DpnP at 9.5 pH: % kill at 30 min (dust mites): No kill
–	OCCOc1ccccc1 [Dowanol Eph, ethylene glycol phenyl ether]	–	–	–	17	1% HC Solution: % kill at 30 min (dust mites): 95% kill; 1% HC with 7% DPnP Solution: % kill at 30 min (dust mites): 95% kill; 1% HC with 7% DpnP at 9.5 pH: % kill at 30 min (dust mites): 50% kill
0.12	CCOCCOCCO [Diethylene glycol ethyl ether]	–	No	–	–	–
1.3	CCCOCCO [Ethylene glycol n-propyl ether]	–	No	–	–	–
0.05	COC(C)COC(C)COC(C)=O (stereo not shown) [Dipropylene glycol methyl ether acetate]	–	Yes	–	–	–
–	COCCOCCO [Diethylene glycol methyl ether]	100	no	0.2	–	–
–	CCCCOCCOC(C)=O [Butyl Cellosolve Acetate, ethylene glycol n-butyl ether acetate]	1	Yes	0.29	4	1% HC Solution: time to 100% kill (dust mites): 22 min; 1% HC with 7% DPnP Solution: time to 100% kill (dust mites): 18 min; 1% HC with 7% DpnP at 9.5 pH: time to 100% kill (dust mites): 16 min
–	CCCCCCOCCOCCO [Hexyl Carbitol, diethylene glycol monohexyl ether]	–	–	–	25	1% HC Solution: % kill at 30 min (dust mites): None; 1% HC with 7% DPnP Solution: time to 100% kill (dust mites): 26 min; 1% HC with 7% DpnP at 9.5 pH: % kill at 30 min (dust mites): No kill
–	CCCCOCCOCCO [Diethylene glycol n-butyl ether]	100	No	0.02	–	–
–	CC(O)COc1ccccc1 (stereo not shown) [Dowanol PPh, propylene glycol phenol ether]	–	–	–	7	1% HC Solution: time to 100% kill (dust mites): 22 min; 1% HC with 7% DPnP Solution: time to 100% kill (dust mites): 30 min; 1% HC with 7% DpnP at 9.5 pH: time to 100% kill (dust mites): 26 min
0.17	COC(C)COC(C)CO (stereo not shown) [Dipropylene glycol methyl ether]	–	No	–	–	–
–	CCCOCC(C)O (stereo not shown) [Propylene glycol n-propyl ether]	100	No	1.8	–	–
–	CCCCOCCO [Ethylene glycol n-butyl ether]	–	No	0.6	–	–
3.8	COCC(C)OC(C)=O (stereo not shown) [Propylene glycol methyl ether acetate]	–	No	–	–	–

SMILES	Vapor Pressure (mm Hg) (Vapor pressure)	Solubility in water at 20° C. [1] [%]	>50% kill in 30 min. (dust mites)	Vapor Pressure (mm Hg) (Vapor pressure; at 20° C.)	8% Solution: time to 100% kill (dust mites) [min]	other results
CCCCCCOCCO [Hexyl Cellosolve, ethylene glycol monohexyl ether]	<1.0	–	Yes	–	11	1% HC Solution: time to 100% kill (dust mites): 15 min; 1% HC with 7% DPnP Solution: time to 100% kill (dust mites): 14 min; 1% HC with 7% DpnP at 9.5 pH: time to 100% kill (dust mites): 26 min
CCCCOCC(C)O (stereo not shown) [Dowanol PnB, propylene glycol n-butyl ether]	0.62	–	Yes	–	17	1% HC Solution: % kill at 30 min (dust mites): None; 1% HC with 7% DPnP Solution: time to 100% kill (dust mites): 29 min; 1% HC with 7% DpnP at 9.5 pH: % kill at 30 min (dust mites): 60% kill
CCCCOCCOCCOC(C)=O [Butyl Carbitol Acetate, diethylene glycol n-butyl ether acetate]	0.04	–	Yes	–	20	1% HC Solution: % kill at 30 min (dust mites): 50% kill; 1% HC with 7% DPnP Solution: % kill at 30 min (dust mites): 90% kill; 1% HC with 7% DpnP at 9.5 pH: % kill at 30 min (dust mites): 80% kill

Reference: patent publication US20070191480A1, “Gycol Ether Miticides and Anti-Allergen Treatments” (priority 2004, published 2007)
